Patent US8168667B2 (Galapagos NV, priority 2006, dated 2012)
Where two headings read alike, the source gives them in different places.

How the values were obtained:
[1] = biological target: T1, human androgen receptor (hAR) (Homo sapiens, UniProt P10275); assay: Functional response test: hAR transactivation (luciferase reporter) in HALP2 cells; format: cell-based
T1 sequence (P10275 1-920): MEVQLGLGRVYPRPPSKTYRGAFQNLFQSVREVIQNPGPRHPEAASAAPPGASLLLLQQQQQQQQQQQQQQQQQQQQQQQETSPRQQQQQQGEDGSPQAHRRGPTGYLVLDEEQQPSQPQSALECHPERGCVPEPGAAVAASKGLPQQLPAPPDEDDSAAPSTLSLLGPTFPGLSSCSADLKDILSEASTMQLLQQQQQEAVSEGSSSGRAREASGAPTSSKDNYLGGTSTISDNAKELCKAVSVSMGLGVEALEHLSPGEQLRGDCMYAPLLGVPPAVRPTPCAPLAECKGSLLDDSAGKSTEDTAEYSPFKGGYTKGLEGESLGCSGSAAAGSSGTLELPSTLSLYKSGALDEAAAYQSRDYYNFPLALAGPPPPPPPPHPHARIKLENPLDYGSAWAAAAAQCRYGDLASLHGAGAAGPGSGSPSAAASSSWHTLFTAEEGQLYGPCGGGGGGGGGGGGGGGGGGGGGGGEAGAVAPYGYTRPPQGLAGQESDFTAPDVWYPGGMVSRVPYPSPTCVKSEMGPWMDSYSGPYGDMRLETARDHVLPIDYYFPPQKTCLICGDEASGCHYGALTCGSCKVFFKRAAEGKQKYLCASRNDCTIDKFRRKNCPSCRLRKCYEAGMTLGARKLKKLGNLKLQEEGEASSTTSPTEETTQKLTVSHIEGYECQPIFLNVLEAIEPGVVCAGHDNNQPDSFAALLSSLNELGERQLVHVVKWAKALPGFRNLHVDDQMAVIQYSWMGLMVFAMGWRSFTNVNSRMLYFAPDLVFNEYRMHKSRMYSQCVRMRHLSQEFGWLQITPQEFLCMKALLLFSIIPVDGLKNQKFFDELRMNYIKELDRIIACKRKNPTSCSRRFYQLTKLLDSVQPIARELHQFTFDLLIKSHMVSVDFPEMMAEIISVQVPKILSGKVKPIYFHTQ
In short: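 HALP2 cells are HeLa cells stably transfected with CMV-driven hAR and a probasin ARE-luciferase reporter. They were seeded 24 h ahead, then exposed to compounds for 20 hours at 37° C in phenol red-free DMEM with 5% desteroided serum. Luciferase luminescence was measured after lysis; for antagonist mode, compounds were tested against increasing DHT concentrations.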

[2] = system: castrated immature young rats; assay: Adapted model of Hershberger's test (levator ani and ventral prostate weight); format: in vivo, Sprague Dawley rats; details: Rattus norvegicus, po, 96 h
Description: The selective modulating activity of the androgen receptor was tested in a model of castrated immature young rats. This model, which is widely recognised for evaluating the anabolic effects of androgen compounds on the muscles and on the genitalia, has been described by Hershberger et al. 1953 Proc. Soc. Expt. Biol. Med. 83:175.
The method is based on the measurement of the well-known effects of androgens on the growth of the muscles and the accessory male sex organs in animals, and also in men. The consequences of castration appear in the form of a rapid involution and atrophy of the prostate and the seminal vesicles and of the anus-lifting muscle (levator ani). This effect may be completely compensated by an exogeneous administration of androgen, in particular of testosterone. The model is thus used to determine the capacity of the tested molecules to maintain the weight of the accessory sex and muscle organs in immature castrated rats, and therefore their androgenic efficacy.
Immature young Sprague Dawley rats (4 to 5 weeks old) weighing approximately 140-160 g (Charles River, Les Oncins, FRANCE) were distributed randomly in various groups and were kept in an environment at 22±2° C. with an alternating day/night cycle of 12 hours and ad libitum access to food and drink.
On day 0, that is, seven days before commencement of the first treatment, the rats were weighed individually then anaesthetised with an intraperitoneal dose of Ketamine/xylazine (85/15 mg/kg, approximately 2 ml/kg). Each animal was then placed on a sterile field and the abdomen and the scrotum were disinfected with Betadine and 70% alcohol. In the case of the orchidectomised control animals (ORX), the testicles were removed via an incision in the middle of the scrotum. A sterile suture was then made to ligature the supra-testicular portion of the tissue prior to surgical section of each testicle. The groups of animals to be treated by the tested compounds were operated on in an identical manner. In the case of the intact control animals (SHAM), the testicles were similarly extracted and reintroduced delicately to their original location. The site of surgical intervention was then sutured using sterile suture thread, and the site was disinfected again by application of Betadine. Each animal was then kept under a sterile pad until it awoke, before being returned to its cage. The animals were kept in an environment at 22±2° C. with an alternating day/night cycle of 12 hours and ad libitum access to food and drink. The animals were treated with the molecules to be tested from post-surgery day 7 and until day 10 preceding sacrifice (day 11).
The rats were split into groups and treated daily from day 7 to day 10 under the conditions defined below: • 1. SHAM control group: Vehicle (0.5% aqueous methyl cellulose) administered per os. • 2. ORX control group: Vehicle (0.5% aqueous methyl cellulose) administered per os. • 3. Treated ORX group: The tested compounds were administered individually per os in suspension in the vehicle described above, in a dose of 30 mg/kg.
After treatment for 4 successive days, the animals were decapitated using a guillotine. The levator ani and the ventral prostate were removed and weighed individually. For comparing inter-experimental data, the weight of each organ was standardised and expressed in milligrammes per 100 g of the weight of the animal (W). For each organ, the average of the standardised weights of the ORX control group was fixed by definition at 0% and the average of the standardised weights of the SHAM control group was fixed by definition at 100%. The efficacy of each product was expressed as a percentage and calculated using the following formula: (Wtreated−WORX)/(WSHAM−WORX)×100 A subsequent ANOVA test was used for statistical analysis to identify the differences between groups.

[3] = read-out: anabolic protection efficacy with regard to levator ani
[4] = read-out: androgenic efficacy with regard to the prostate
[5] = antagonism, concentration which increases the EC50 of the DHT by a factor of 2, Schild regression, HALP2 cells

| SMILES | KSchild (nM) potency [1] | melting point | other results |
| --- | --- | --- | --- |
| CN1C(=O)N(c2ccc(C#N)c(C(F)(F)F)c2)C(=O)C1c1ccc(O)cc1 (stereo not shown) [Example 2, 4-[2,5-dioxo-4-(4-hydroxyphenyl)-3-methyl-imidazolidin-1-yl]-2-trifluoromethylbenzonitrile] | 9.65 nM | 157.4 °C |  |
| COc1cc(N2C(=O)N(C)C(C)(c3ccc(O)cc3)C2=O)ccc1C#N (stereo not shown) [Example 9, 4-[3,4-dimethyl-2,5-dioxo-4-(4-hydroxyphenyl)imidazolidin-1-yl]-2-methoxybenzonitrile] | 2.1 nM |  | inhibition in vivo at 30 mg/kg [2, 3]: 50 to 140%; inhibition in vivo at 30 mg/kg [2, 4]: 5 to 70% |
| CN1C(=O)N(c2ccc(Cl)c(Cl)c2)C(=O)C1(C)c1ccc(O)cc1 (stereo not shown) [Example 25, 1-(3,4-dichlorophenyl)-3,4-dimethyl-4-(4-hydroxyphenyl)imidazolidine-2,5-dione] | 10.9 nM | 184 °C |  |
| C#CCN1C(=S)N(c2ccc(C#N)c(C(F)(F)F)c2)C(=O)C1(C)c1ccc(O)cc1 (stereo not shown) [Example 43, 4-[4-(4-hydroxyphenyl)-4-methyl-5-oxo-3-(2-propynyl)-2-thioxoimidazolidin-1-yl]-2-trifluoromethylbenzonitrile] | 0.49 nM | 169 °C |  |
| CN1C(=O)N(c2ccc(C#N)c(C(F)(F)F)c2)C(=O)C1(C)c1ccc(O)c(Cl)c1 (stereo not shown) [Example 173, 4-[4-(3-chloro-4-hydroxyphenyl)-3,4-dimethyl-2,5-dioxoimidazolidin-1-yl]-2-trifluoromethylbenzonitrile] | 3 nM | 161.1 °C |  |
| CN1C(=O)N(c2ccc(C#N)c(C(F)(F)F)c2)C(=O)C1(CO)c1ccc(O)cc1 (stereo not shown) [Example 176, 4-[2,5-dioxo-4-hydroxymethyl-4-(4-hydroxyphenyl)-3-methyl-imidazolidin-1-yl]-2-trifluoromethylbenzonitrile] | 1.34 nM |  | inhibition in vivo at 30 mg/kg [2, 3]: 50 to 140%; inhibition in vivo at 30 mg/kg [2, 4]: 5 to 70% |
| CN1C(=O)N(c2ccc(C#N)c(C(F)(F)F)c2)C(=O)C1(CF)c1ccc(O)cc1 (stereo not shown) [Example 177, 4-[2,5-dioxo-4-fluoromethyl-4-(4-hydroxyphenyl)-3-methylimidazolidin-1-yl]-2-trifluoromethylbenzonitrile] | 0.72 nM |  | inhibition in vivo at 30 mg/kg [2, 3]: 50 to 140%; inhibition in vivo at 30 mg/kg [2, 4]: 5 to 70% |
| C#CCC1(c2ccc(O)cc2)C(=O)N(c2ccc(C#N)c(C(F)(F)F)c2)C(=O)N1C (stereo not shown) [Example 177.3, 4-[2,5-dioxo-4-(4-hydroxyphenyl)-3-methyl-4-(2-propynyl)imidazolidin-1-yl]-2-trifluoromethylbenzonitrile] | 15 nM | 122 °C |  |
| CN1C(=O)N(c2ccc(Cl)c(Cl)c2)C(=O)C1(CF)c1ccc(O)cc1 (stereo not shown) [Example 184, 1-(3,4-dichlorophenyl)-4-fluoromethyl-4-(4-hydroxyphenyl)-3-methylimidazolidine-2,5-dione] |  | 167.2 °C | EC50 ([1]; agonism, HALP2 cells (HeLa, hAR + ARE-luciferase), 20 hours at 37° C.): 4.9 nM; KSchild (nM) potency [1, 5]: 2.8 nM |
| CCOCN1C(=O)N(c2ccc(C#N)c(C(F)(F)F)c2)C(=O)C1(C)c1ccc(O)cc1 (stereo not shown) [Example 221, 4-[3-(ethoxymethyl)-4-(4-hydroxyphenyl)-4-methyl-2,5-dioxoimidazolidin-1-yl]-2-trifluoromethylbenzonitrile] | 5.66 nM | 143 °C |  |
| COCN1C(=O)N(c2ccc(C#N)c(C(F)(F)F)c2)C(=O)C1(C)c1ccc(O)cc1 (stereo not shown) [Example 222, 4-[4-(4-hydroxyphenyl)-3-methoxymethyl-4-methyl-2,5-dioxoimidazolidin-1-yl]-2-trifluoromethylbenzonitrile] |  |  | inhibition in vivo at 30 mg/kg [2, 3]: 50 to 140%; inhibition in vivo at 30 mg/kg [2, 4]: 5 to 70% |
| COCN1C(=O)N(c2ccc(C#N)c(OC)c2)C(=O)C1(C)c1ccc(O)cc1 (stereo not shown) [Example 223.1, 4-[4-(4-hydroxyphenyl)-3-methoxymethyl-4-methyl-2,5-dioxoimidazolidin-1-yl]-2-methoxybenzonitrile] | 4 nM | 141 °C |  |
| CCN1C(=O)N(c2ccc(C#N)c(C(F)(F)F)c2)C(=O)C1(C)c1ccc(O)cc1 (stereo not shown) [Example 224, 4-[2,5-dioxo-3-ethyl-4-(4-hydroxyphenyl)-4-methylimidazolidin-1-yl]-2-trifluoromethylbenzonitrile] |  | 165 °C | KSchild (nM) potency [1, 5]: 2 nM |
| CCCN1C(=O)N(c2ccc(C#N)c(C(F)(F)F)c2)C(=O)C1(C)c1ccc(O)cc1 (stereo not shown) [Example 225, 4-[2,5-dioxo-4-(4-hydroxyphenyl)-4-methyl-3-propylimidazolidin-1-yl]-2-trifluoromethylbenzonitrile] | 2.83 nM | 125 °C |  |
| CC1(c2ccc(O)cc2)C(=O)N(c2ccc(C#N)c(C(F)(F)F)c2)C(=O)N1CCF (stereo not shown) [Example 226, 4-[2,5-dioxo-3-(2-fluoroethyl)-4-(4-hydroxyphenyl)-4-methylimidazolidin-1-yl]-2-trifluoromethylbenzonitrile] | 2.45 nM | 157 °C |  |
| CC1(c2ccc(O)cc2)C(=O)N(c2ccc(C#N)c(C(F)(F)F)c2)C(=O)N1S(C)(=O)=O (stereo not shown) [Example 243.1, 4-[2,5-dioxo-4-(4-hydroxyphenyl)-4-methyl-3-(methylsulphonyl)imidazolidin-1-yl]-2-trifluoromethylbenzonitrile] | 80 nM |  |  |
| Cc1ccc(S(=O)(=O)N2C(=O)N(c3ccc(C#N)c(C(F)(F)F)c3)C(=O)C2(C)c2ccc(O)cc2)cc1 (stereo not shown) [Example 243.2, 4-[2,5-dioxo-4-(4-hydroxyphenyl)-4-methyl-3-[(4-methylphenyl)sulphonyl]imidazolidin-1-yl]-2-trifluoromethylbenzonitrile] | 150 nM |  |  |
| CN1C(=O)N(c2ccc(C#N)c(C(F)(F)F)c2)C(=O)C1(C)c1ccc(OCCO)cc1 (stereo not shown) [Example 343] | 60 nM |  |  |
